Measurements published in patent US11147848B2, “Extracts and isolated compounds from Cakile arabica for treatment of ulcer” (KING SAUD UNIVERSITY, priority 2013, dated 2021).
Several values for one entry are separate records, joined by “and”; a condition that tells them apart may be missing. Equal values may be shown once.

System: absolute ethanol-induced ulcer
Assay: absolute ethanol-induced ulcer model (anti-ulcerogenic activity)
Assay type: in vivo, Wistar rats
Conditions: rats, oral, ranitidine 100 mg/kg, TAE 1000 mg/kg, 1 and 2 50 mg/kg; for score (lesion score): scoring system 0-5; for score (lesion score) / No. of ulcers / ulcer index: n = 6; for No. of ulcers / ulcer index: mean ± SD
Description: Evaluation of the anti-ulcerogenic activity was carried out using absolute ethanol-induced ulcer model as described by Muthu et al. Int. J. Pharm. Pharm. Sci. 2013, 5, Suppl1, 269-272.
About 30 Wistar rats were used, they divided into 5 groups each of 6 rats. Group 1 received the vehicle and served as control group, group 2 received ranitidine (100 mg/kg) and served as standard group, groups 3 received the total alcohol extract of the plant under investigation at a dose of 1000 mg/kg. groups 4 and 5 received the isolated compounds 1 and 2 at dose 50 mg/kg respectively.
Rats of all groups were fasted for 24 h then all medications were administered orally. One hour after treatment, the animals received an oral dose of absolute ethanol (1 ml/200 g) and then sacrificed one hour later, by ether inhalation, the stomachs were rapidly removed, opened along their greater curvature and gently rinsed under running tap water.
Number of lesions in the glandular part of the stomach were measured under an illuminated magnifying microscope (10×). Long lesions were counted and their lengths were measured. Petechial lesions were counted, and then each five petechial lesions were taken as 1 mm of ulcer.
The lesion scores: the mucosal lesions were quantified by the scoring system (0-5) 0=no damage, 1=Local edema and inflammation without ulcers; 2=One ulcer without inflammation; 3=one to two ulcers with inflammation & lesion diameter <1 cm; 4=More than two ulcers with lesion diameter 1-2 cm; 5=Sever ulceration with lesion diameter >2 cm.
Ulcer index To calculate the ulcer index (mm), the sum of the total length of long ulcers and petechial lesions in each group of rats was divided by its number. The curative ratio was determined according to the formula: % Protection of control ulcer=Control UI−Test UI/Control UI×100

Row | SMILES | score (lesion score) | % protection of control ulcer | No. of ulcers | ulcer index [mm] | % protection of control ulcer (listed as ranitidine)
1 | CCCCCCCCCCCCCCCCCCCCCCCC(=O)O [Compound 1, tetracosanoic acid] | 1 | 80% | 2 ± 2.74 | 2.6 ± 3.58 | –
2 | CNC(=C[N+](=O)[O-])NCCSCc1ccc(CN(C)C)o1 [Ranitidine, ranitidine, reference compound] | 2.2 | 46.2% | 7.2 ± 0.84 | 7 ± 1.58 | 46.2% and 44.6%
3 | CCCCOC(=O)C(O)CCC(=O)O (stereo not shown) [Compound 2, 4-hydroxy-5-n-butoxy-5-oxopentanoic acid] | 2 | 55.5% and 55.3% | 3.6± 2.97 | 5.8 ± 3.42 | –
